Measurements as given in patent US20050112573A1, “Method of detecting toxic substance” (priority 2001, published 2005).

Tested on: yeast genes (level of expressed mRNA)
Test: DNA chip analysis of expressed mRNA of yeast genes after 2 h culture with a toxic chemical substance
Type: cell-based, Saccharomyces cerevisiae S288C
Details: for The level of expressed mRNA in the presence of chemical substance/ (ratio to absence): transport facilitation protein gene; for The level of expressed mRNA in the presence of chemical substance/: ratio to no chemical; for The level of expressed mRNA in the presence of chemical substance/ (ratio to absence of chemical substance): stress protein genes, DNA chip
Method in brief: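 S. cerevisiae S288C grown at 25° C in YPD; toxicant added at log phase at growth-inhibitory, non-lethal levels for 2 h, untreated cells as control. Poly(A) mRNA reverse-transcribed with Cy3/Cy5-dUTP, hybridized to whole-genome chip at 65° C >12 h; value is fluorescence ratio versus untreated.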

Substance: sodium dodecylbenzosulfonate [(17)]
- The level of expressed mRNA in the presence of chemical substance/ (ratio to absence) (yeast gene YKL188C): 1.1
- The level of expressed mRNA in the presence of chemical substance/ (ratio to absence) (yeast gene YKL192C): 1.0
- The level of expressed mRNA in the presence of chemical substance/The level of expressed mRNA in the absence of chemical substance (yeast gene YKL193C): 1.2
- The level of expressed mRNA in the presence of chemical substance/ (ratio to absence) (yeast gene YKL209C): 1.1
- The level of expressed mRNA in the presence of chemical substance/ (ratio to absence) (yeast gene YKL217W): 1.7
- The level of expressed mRNA in the presence of chemical substance/in the absence of chemical substance (yeast gene YKL218C): 2.5
- The level of expressed mRNA in the presence of chemical substance/ (ratio to absence) (yeast gene YKL221W): 0.8
- The level of expressed mRNA in the presence of chemical substance/ (yeast gene YKR007W): 0.8
- The level of expressed mRNA in the presence of chemical substance/ (in its absence), gene YKR009C (yeast gene YKR009C, ratio of DNA chip fluorescence intensity to that without chemical substance): 1.9
- The level of expressed mRNA in the presence of chemical substance/ (yeast gene YKR020W): 1.3
- The level of expressed mRNA in the presence of chemical substance/ (in its absence), gene YKR034W (yeast gene YKR034W, ratio of DNA chip fluorescence intensity to that without chemical substance): 0.8
- The level of expressed mRNA in the presence of chemical substance/ (ratio to absence) (yeast gene YKR039W): 0.9
- The level of expressed mRNA in the presence of chemical substance/ (ratio to absence of chemical substance) (yeast gene YKR053C): 2.8
- The level of expressed mRNA in the presence of chemical substance/ in its absence, gene YKR058W (yeast gene YKR058W, energy system protein genes, 2 h culture with the chemical, ratio to control without chemical): 0.8
- The level of expressed mRNA in the presence of chemical substance/ (yeast gene YKR071C): 0.9
- The level of expressed mRNA in the presence of chemical substance/in the absence of chemical substance (yeast gene YKR097W): 1.1
- The level of expressed mRNA in the presence of chemical substance/ (ratio to absence) (yeast gene YKR105C): 0.8
- The level of expressed mRNA in the presence of chemical substance/ (ratio to absence) (yeast gene YKR106W): 0.9
- The level of expressed mRNA in the presence of chemical substance/ (yeast gene YLL025W): 1.0
- The level of expressed mRNA in the presence of chemical substance/ (ratio to absence) (yeast gene YLL028W): 1.2
- The level of expressed mRNA in the presence of chemical substance/ (ratio to absence) (yeast gene YLL055W): 1.1
- The level of expressed mRNA in the presence of chemical substance/ (ratio to absence) (yeast gene YLL061W): 0.6
- The level of expressed mRNA in the presence of chemical substance/ (yeast gene YLL062C): 0.9
- The level of expressed mRNA in the presence of chemical substance/ (in its absence), gene YLR006C (yeast gene YLR006C, ratio of DNA chip fluorescence intensity to that without chemical substance): 1.6
- The level of expressed mRNA in the presence of chemical substance/ (ratio to absence of chemical substance) (yeast gene YLR006C): 1.6
- The level of expressed mRNA in the presence of chemical substance/in the absence of chemical substance (yeast gene YLR027C): 1.3
- The level of expressed mRNA in the presence of chemical substance/ (ratio to absence) (yeast gene YLR092W): 1.0
- The level of expressed mRNA in the presence of chemical substance/ (yeast gene YLR108C): 1.0
- The level of expressed mRNA in the presence of chemical substance/The level of expressed mRNA in the absence of chemical substance (yeast gene YLR120C): 3.5
- The level of expressed mRNA in the presence of chemical substance/in the absence of chemical substance (yeast gene YLR133W): 1.1
- The level of expressed mRNA in the presence of chemical substance/The level of expressed mRNA in the absence of chemical substance (yeast gene YLR136C): 1.8
- The level of expressed mRNA in the presence of chemical substance/ (yeast gene YLR145W): 1.0
- The level of expressed mRNA in the presence of chemical substance/in the absence of chemical substance (yeast gene YLR155C): 1.4
- The level of expressed mRNA in the presence of chemical substance/ (yeast gene YLR156W): 1.1
- The level of expressed mRNA in the presence of chemical substance/in the absence of chemical substance (yeast gene YLR158C): 1.4
- The level of expressed mRNA in the presence of chemical substance/The level of expressed mRNA in the absence of chemical substance (yeast gene YLR178C): 2.0
- The level of expressed mRNA in the presence of chemical substance/in the absence of chemical substance (yeast gene YLR195C): 0.9
- The level of expressed mRNA in the presence of chemical substance/ (yeast gene YLR247C): 1.2
- The level of expressed mRNA in the presence of chemical substance/The level of expressed mRNA in the absence of chemical substance (yeast gene YLR250W): 1.4
- The level of expressed mRNA in the presence of chemical substance/ (yeast gene YLR267W): 1.2
- The level of expressed mRNA in the presence of chemical substance/ (yeast gene YLR280C): 1.2
- The level of expressed mRNA in the presence of chemical substance/ (yeast gene YLR290C): 1.3
- The level of expressed mRNA in the presence of chemical substance/ in its absence, gene YLR295C (yeast gene YLR295C, energy system protein genes, 2 h culture with the chemical, ratio to control without chemical): 0.9
- The level of expressed mRNA in the presence of chemical substance/ (ratio to absence), gene YLR295C (yeast gene YLR295C, mitochondria-located protein genes, 2 h culture with chemical): 0.9
- The level of expressed mRNA in the presence of chemical substance/in the absence of chemical substance (yeast gene YLR303W): 1.5
- The level of expressed mRNA in the presence of chemical substance/ (yeast gene YLR311C): 1.3
- The level of expressed mRNA in the presence of chemical substance/The level of expressed mRNA in the absence of chemical substance (yeast gene YLR327C): 3.3
- The level of expressed mRNA in the presence of chemical substance/in the absence of chemical substance (yeast gene YLR345W): 1.2
- The level of expressed mRNA in the presence of chemical substance/ (ratio to absence) (yeast gene YLR348C): 1.1
- The level of expressed mRNA in the presence of chemical substance/ (in its absence), gene YLR351C (yeast gene YLR351C, ratio of DNA chip fluorescence intensity to that without chemical substance): 1.3
- The level of expressed mRNA in the presence of chemical substance/The level of expressed mRNA in the absence of chemical substance (yeast gene YLR356W): 1.1
- The level of expressed mRNA in the presence of chemical substance/The level of expressed mRNA in the absence of chemical substance (yeast gene YLR362W): 1.2
- The level of expressed mRNA in the presence of chemical substance/ (in its absence), gene YLR375W (yeast gene YLR375W, ratio of DNA chip fluorescence intensity to that without chemical substance): 1.0
- The level of expressed mRNA in the presence of chemical substance/ (ratio to absence) (yeast gene YLR378C): 0.9
- The level of expressed mRNA in the presence of chemical substance/The level of expressed mRNA in the absence of chemical substance (yeast gene YLR391W): 1.4
- The level of expressed mRNA in the presence of chemical substance/The level of expressed mRNA in the absence of chemical substance (yeast gene YLR429W): 1.0
- The level of expressed mRNA in the presence of chemical substance/in the absence of chemical substance (yeast gene YML004C): 1.5
- The level of expressed mRNA in the presence of chemical substance/ (yeast gene YML068W): 1.0
- The level of expressed mRNA in the presence of chemical substance/ (ratio to absence) (yeast gene YML116W): 1.0
- The level of expressed mRNA in the presence of chemical substance/ in its absence, gene YML129C (yeast gene YML129C, energy system protein genes, 2 h culture with the chemical, ratio to control without chemical): 1.3
- The level of expressed mRNA in the presence of chemical substance/ (ratio to absence), gene YML129C (yeast gene YML129C, mitochondria-located protein genes, 2 h culture with chemical): 1.3
- The level of expressed mRNA in the presence of chemical substance/in the absence of chemical substance (yeast gene YML131W): 2.5
- The level of expressed mRNA in the presence of chemical substance/The level of expressed mRNA in the absence of chemical substance (yeast gene YMR004W): 0.9
- The level of expressed mRNA in the presence of chemical substance/ (ratio to absence), gene YMR023C (yeast gene YMR023C, mitochondria-located protein genes, 2 h culture with chemical): 1.1
- The level of expressed mRNA in the presence of chemical substance/ (yeast gene YMR034C): 1.8
- The level of expressed mRNA in the presence of chemical substance/ (yeast gene YMR041C): 0.8
- The level of expressed mRNA in the presence of chemical substance/ (ratio to absence) (yeast gene YMR056C): 1.0
- The level of expressed mRNA in the presence of chemical substance/ (ratio to absence) (yeast gene YMR058W): 0.6
- The level of expressed mRNA in the presence of chemical substance/The level of expressed mRNA in the absence of chemical substance (yeast gene YMR094W): 1.0
- The level of expressed mRNA in the presence of chemical substance/The level of expressed mRNA in the absence of chemical substance (yeast gene YMR104C): 2.8
- The level of expressed mRNA in the presence of chemical substance/ (yeast gene YMR178W): 1.1
- The level of expressed mRNA in the presence of chemical substance/ (ratio to absence of chemical substance) (yeast gene YMR186W): 0.7
- The level of expressed mRNA in the presence of chemical substance/ (ratio to absence) (yeast gene YMR203W): 0.8
- The level of expressed mRNA in the presence of chemical substance/The level of expressed mRNA in the absence of chemical substance (yeast gene YMR219W): 1.1
- The level of expressed mRNA in the presence of chemical substance/The level of expressed mRNA in the absence of chemical substance (yeast gene YMR226C): 1.6
- The level of expressed mRNA in the presence of chemical substance/ (yeast gene YMR253C): 1.2
- The level of expressed mRNA in the presence of chemical substance/ in its absence, gene YMR267W (yeast gene YMR267W, energy system protein genes, 2 h culture with the chemical, ratio to control without chemical): 0.9
- The level of expressed mRNA in the presence of chemical substance/ (ratio to absence), gene YMR267W (yeast gene YMR267W, mitochondria-located protein genes, 2 h culture with chemical): 0.9
- The level of expressed mRNA in the presence of chemical substance/ in its absence, gene YMR267W (yeast gene YMR267W, ratio of DNA chip fluorescence intensity to that without chemical substance): 0.9
- The level of expressed mRNA in the presence of chemical substance/The level of expressed mRNA in the absence of chemical substance (yeast gene YMR275C): 0.9
- The level of expressed mRNA in the presence of chemical substance/The level of expressed mRNA in the absence of chemical substance (yeast gene YMR276W): 1.2
- The level of expressed mRNA in the presence of chemical substance/ (in its absence), gene YMR278W (yeast gene YMR278W, ratio of DNA chip fluorescence intensity to that without chemical substance): 1.0
- The level of expressed mRNA in the presence of chemical substance/ (in its absence), gene YMR293C (yeast gene YMR293C, ratio of DNA chip fluorescence intensity to that without chemical substance): 0.8
- The level of expressed mRNA in the presence of chemical substance/The level of expressed mRNA in the absence of chemical substance (yeast gene YMR314W): 1.3
- The level of expressed mRNA in the presence of chemical substance/The level of expressed mRNA in the absence of chemical substance (yeast gene YNL006W): 1.0
- The level of expressed mRNA in the presence of chemical substance/The level of expressed mRNA in the absence of chemical substance (yeast gene YNL007C): 1.1
- The level of expressed mRNA in the presence of chemical substance/ (in its absence), gene YNL025C (yeast gene YNL025C, ratio of DNA chip fluorescence intensity to that without chemical substance): 0.7
- The level of expressed mRNA in the presence of chemical substance/ (ratio to absence) (yeast gene YNL055C): 1.2
- The level of expressed mRNA in the presence of chemical substance/ (ratio to absence of chemical substance) (yeast gene YNL064C): 0.7
- The level of expressed mRNA in the presence of chemical substance/in the absence of chemical substance (yeast gene YNL071W): 1.0
- The level of expressed mRNA in the presence of chemical substance/ (ratio to absence), gene YNL073W (yeast gene YNL073W, mitochondria-located protein genes, 2 h culture with chemical): 0.8
- The level of expressed mRNA in the presence of chemical substance/The level of expressed mRNA in the absence of chemical substance (yeast gene YNL093W): 3.0
- The level of expressed mRNA in the presence of chemical substance/ (yeast gene YNL122C): 1.0
- The level of expressed mRNA in the presence of chemical substance/ (ratio to absence) (yeast gene YNL142W): 1.0
- The level of expressed mRNA in the presence of chemical substance/ (in its absence), gene YNL192W (yeast gene YNL192W, ratio of DNA chip fluorescence intensity to that without chemical substance): 2.3
